Here are results for one compound from patent publication US12036222B2, “Methods of treating cancers overexpressing CARM1 with EZH2 inhibitors and a PARP inhibitor” (The Wistar Institut of Anatomy and Biology, priority 2018, dated 2024).

“Also recorded” adds a separate entry of the source.

The conditions of data set [1]: clinical trials for hematopoietic malignancies; cited from earlier work.
A further data set has as its system CARM1-expressing tumors. The experiment in a line: Immunohistochemistry and qRT-PCR of dissected CARM1-expressing tumors. Type of data set: in vivo, mice. The procedure: FIG. 79 illustrates immunohistochemical analysis for serial sections of tumors dissected from the indicated treatment groups where the tumor sections were stained for H3K27Me3, EZH2, cleaved caspase 3, and Ki67. Scale bar=50 μm.
FIG. 80 illustrates histological scoring (H-score) of the indicated proteins that was calculated for 3 separate fields from 5 tumors from 5 individual mice from each of the indicated groups.
FIG. 81 illustrates the expression of the indicated EZH2/BAF155 target genes that was determined by qRT-PCR in the tumors dissected from the indicated treatment groups.
(§1) The observed tumor growth suppression in vivo was correlated with the molecular pathways underlying the CARM1-dependent effects of EZH2 inhibition. To do so, immunohistochemical (IHC) analysis was performed for markers of cell proliferation (Ki67), apoptosis (cleaved caspase 3), H3K27Me3 and EZH2. […] Finally, the observed decrease in cell proliferation and increase in apoptosis correlated with the upregulation of the identified CARM1-regulated EZH2/BAF155 target genes such as DAB2, DLC1 and NOXA by the EZH2 inhibitor GSK126 in vivo (FIG. 81).
(In general: Quantitative PCR measures a nucleic acid by following its amplification.)

The test system of data set [2] is tumors formed by CARM1 knockout cells. The experiment in a line: Immunohistochemistry and qRT-PCR of dissected CARM1 knockout tumors. Type of data set: in vivo, mice. The procedure:
FIGS. 82 to 84 illustrate immunohistochemical analysis for serial sections of tumors dissected from mice injected with CARM1 knockout A1847 cells. Serial sections of tumors dissected from the indicated treatment groups described in FIGS. 73 to 75 were subjected to immunohistochemical staining for H3K27Me3, EZH2, cleaved caspase 3, and Ki67 (FIG. 82). Scale bar=50 μm. Histological score (H-score) of the indicated proteins was calculated for 3 separate fields from 5 tumors from 5 individual mice from each of the indicated groups (FIG. 83). Expression of the indicated EZH2/BAF155 target genes was determined by qRT-PCR in the tumors dissected from the indicated treatment groups (FIG. 84).
as §1

Data set [3] concerns orthotopically-transplanted CARM1-expressing tumors. In words: Intrabursal orthotopic xenograft model, CARM1-expressing A1847 cells. Type of data set: in vivo, NSG mice. How it is done: The protocols were approved by the Institutional Animal Care and Use Committee (IACUC). For in vivo experiments, the sample size of 5 mice per group was determined based on the data shown from in vitro experiments. Intrabursal orthotopic xenograft was performed as described in Bitler, et al. Nature Medicine (2015) 21:231-8 and Bitler et al. Cancer Research (2011) 71:6184-94. Briefly, 1×10^6 A1847 parental or A1847 CARM1 knockout cells were unilaterally injected into the ovarian bursa of 6-8-week old female immunocompromised NSG mice (n=5 per group). One week after injection the mice were randomized into two groups and treated with vehicle control (20% captisol) or GSK126 (50 mg/kg daily) for three weeks. At the end of the experiments, tumors were surgically dissected and tumor burden was calculated based on tumor weight. For survival experiments, after stopping the treatment, the mice were followed for mortality or when the tumor burden reached 10% of body weight as determined by The Wistar Institute IACUC guideline.
EZH2 inhibitors, such as GSK126, are used safely in clinical trials for hematopoietic malignancies (Ribrag et al. Eur J Cancer (2014) 50:197). To determine the effects of EZH2 inhibition in vivo on the growth of CARM1-expressing ovarian tumors, two xenograft models were utilized. […]

For the compound `CC[C@H](C)n1cc(C)c2c(C(=O)NCc3c(C)cc(C)[nH]c3=O)cc(-c3ccc(N4CCNCC4)nc3)cc21` [GSK126, (S)-1-(sec-butyl)-N-((4,6-dimethyl-2-oxo-1,2-dihydropyridin-3-yl)methyl)-3-methyl-6-(6-(piperazin-1-yl)pyridin-3-yl)-1H-indole-4-carboxamide], in data set [1], the “safety in clinical trials” value was “used safely; also recorded: proven safe; also recorded: well-tolerated with limited toxicity”. For the same compound, in the data set on CARM1-expressing tumors (IHC), the EZH2 staining entry is listed as “did not affect EZH2 staining”, the H3K27Me3 staining entry is “decreased”, the “expression of Ki67” value was “decreased the expression of Ki67” and the “expression of cleaved caspase 3” value was “increased the expression of cleaved caspase 3”. Also, in the data set on CARM1-expressing tumors (qRT-PCR), the “expression of EZH2/BAF155 target genes DAB2, DLC1 and NOXA in vivo” value is on record as “upregulation”. In data set [2] (IHC), the H3K27Me3 entry is on record as “reduction of H3K27Me3”, the “expression of Ki67” value is “did not affect the expression” and the “expression of cleaved caspase 3” value is recorded as “did not affect the expression”. Also, the “expression of CARM1 regulated EZH2/BAF155 target genes” value in data set [2] (qRT-PCR) was “did not increase the expression”. For the same compound, in data set [3] (50 mg/kg daily i.p., three weeks), the “growth of CARM1-expressing tumors” value was “significantly inhibited”. Besides, in data set [3] (followed after stopping treatment, vs controls), the “survival of tumor bearing mice” value was “significantly improved the survival”.
